What was measured:
[1] = tested on: acute inflammatory oedema of the paws; test: Rat's paw oedema test (carrageenin), inhibition of the increase in paw volume; assay type: in vivo; details: po, 1 h, male rats, intragastral, one hour after carrageenin
Procedure: An acute inflammatory oedema of the paws was induced in male rats (100-120 g) by subplantar injection of 0.1 ml of 2% carrageenin (dissolved in aqueous 0.9% NaCl solution). The volume of the paws was measured with a volumetric paw measuring apparatus 1 hour and 4 hours after the carrageenin injection. The differences between the two measurements of the paws was calculated. The test substances were suspended in 1% tylose and administered intragastrally through a stomach tube one hour after the carrageenin injection. The control animals were only given the vehicle (1% tylose). The percentage inhibition of the increase in volume in the treated animals was obtained by a comparison with the untreated controls. The average inhibitory doses (ED50) were calculated by means of the regression curves.

[2] = tested on: leucocyte migration; test: Leucocyte migration test (carrageenin-impregnated polyester sponge); assay type: in vivo; details: male rats, 50 mg/kg i.g., given immediately after sponge implantation and after 5 and 21 hours
Procedure: 2. Leucocyte migration test
A polyester sponge impregnated with 2% carrageenin solution was implanted subcutaneously in the neck region in male rats (140-150 g) (see G. A. Higgs et al, Eur. J. Pharmacol. 66, 81 (1980), A. W. Ford-Hutchinson et al, J. Pharmacol. Methods 1, 3 (1978)). The sponges were removed after 24 hours. The leucocytes which had migrated in were washed out in a PBS solution (pH 7.4, 0.5% trypsin, 10 units/ml of heparin) at 37° C. for 30 minutes.
The sponges were then carefully pressed out and centrifuged (10 minutes, 500 revs/min). The leucocytes in the washing liquid were then counted. The test substances, which were taken up in 1% tylose, and the vehicle (1% tylose) were administered intragastrally with a stomach tube immediately after implantation of the sponge and after 5 hours and 21 hours. The percentage inhibition of leucocyte migration after administration of the test substances was compared with that of the controls. The average inhibitory doses (ED50) were calculated by means of the regression graphs.

[3] = tested on: LTC 4-synthesis and -release (lipoxygenase); test: Inhibition of LTC 4-synthesis and -release in vitro; assay type: cell-based
Excerpt: (§1) 3. Inhibition of PGE 2- and LTC 4-synthesis and -release

[4] = tested on: PGE 2-synthesis and -release (cyclooxygenase); test: Inhibition of PGE 2-synthesis and -release in vitro; assay type: cell-based
Excerpt: as §1

SMILES	ED50 [1] [mg/kg]	Inhibition of leucocyte migration (control = 0%) [2] [%]	other results
CN(NC=O)c1nc2ccccc2s1 [Example 4, N^2-(benzothiazol-2-yl)-N^2-methyl-formhydrazide]	50	50	
CC=NNc1nc2ccc(C)cc2s1 [Example 7, N-(6-methylbenzothiazol-2-yl)acetaldehydehydrazone]	25		
CC=NNc1nc2cc(Cl)ccc2s1 [Example 8]	~80		
CN(C)C=NNc1nc2ccccc2s1 [Example 1, N^1-(benzothiazol-2-yl)-N^3,N^3-dimethylformamidrazone]	14	25	LTC4 (% of controls) ([3]; at 10^-4): 51 % of controls; lipoxygenase inhibition (in words) ([3]; at 10^-4, conclusion from LTC4 test): lipoxygenase inhibition at 10^-4; LTC4 (% of controls) ([3]; at 10^-5): > 100 % of controls; LTC4 (% of controls) ([3]; at 10^-6): > 100 % of controls; PGE2 (% of controls) ([4]; at 10^-4): 29 % of controls; PGE2 (% of controls) ([4]; at 10^-5): 84 % of controls; PGE2 (% of controls) ([4]; at 10^-6): 99 % of controls; cyclooxygenase inhibition (in words) ([4]; conclusion from PGE2 test): cyclooxygenase inhibitor
CCOC(C)=NNc1nc2ccccc2s1 [Example 5, N^2-(benzothiazol-2-yl)-ethyl-acetohydrazonate]	25	30	
CN(C)C=NN(C)c1nc2ccccc2s1 [Example 2, N^1-(benzothiazol-2-yl)-N^1,N^3,N^3-trimethylformamidrazone]	15		
CC(=O)NNc1nc2ccc(C)cc2s1 [Example 6, N^2-(6-methylbenzothiazol-2-yl)-acetohydrazide]	50		

From US4732986A, “Benzothiazole derivatives, processes for their preparation and pharmaceutical compositions containing these compounds” (Ludwig Heumann & Co. GmbH, priority 1984, dated 1988)
